Measurements from US11530181B2, “IL-6 inhibitors and methods of treatment” (University of Florida Research Foundation, Incorporated, priority 2018, dated 2022).

Assays:
[1] = test system: Capan-1 pancreatic cancer cell line; experiment: MTT cell viability assay, Capan-1; assay type: cell-based; settings: Homo sapiens
Experimental: (§1) Human breast cancer cell lines MCF7, MDA-MB-231 and SUM159 were maintained in Dulbecco's modified Eagle medium (DMEM). Human pancreatic cancer cell line BxPC-3 was maintained in RPMI 1640 medium. Human pancreatic cancer cell line Capan-1 was maintained in Iscove's Modified Dulbecco's Medium (IMEM). All media were supplemented with 10% FBS and 1% penicillin/streptomycin, and cells were incubated in a humidified 37° C. incubator with 5% CO2. PE/CA-PJ49 cell line was purchased from external sources and maintained according to manufacturer's protocol.
(§2) Cell viability was evaluated by using the MTT assay in triple replicates in one experiment and repeated for three times. Cancer cells were seeded in 96-well plates at a density of 3,000 cells per well. The cells were incubated at 37° C. for a period of 24 hours. Escalating concentrations of IL-6/gp130 inhibitors were added in triplicate to the plates in the presence of 10% FBS. After incubation for 48 or 72 hours, a stock solution of MTT (0.5 mg/ml) was then added to each well containing the treated cells, followed by incubation at 37° C. for 3 h. After removal of medium, the MTT dye was dissolved with spectrophotometric grade DMSO and the absorbance was read at 570 nm. The IC50 value is determined by interpolation based on the absorbance value halfway between positive and negative controls. […]

[2] = test system: MCF7 breast cancer cell line; experiment: MTT cell viability assay, MCF7; assay type: cell-based, human; settings: Homo sapiens; MCF7 (low IL-6), 48 h, 0% FBS medium
Experimental: as §1
as §2, with “Escalating concentrations of IL-6/gp130 inhibitors were added in triplicate to the plates in the presence of 10% FBS.” left out

[3] = test system: MDA-MB-231 breast cancer cell line; experiment: MTT cell viability assay, MDA-MB-231; assay type: cell-based, human; settings: Homo sapiens; MDA-MB-231 (medium IL-6), 48 h, 0% FBS medium
Experimental: as §1
as §2, with “Escalating concentrations of IL-6/gp130 inhibitors were added in triplicate to the plates in the presence of 10% FBS.” left out

[4] = test system: STAT3 phosphorylation in BxPC-3 cells; experiment: Western blot, STAT3 phosphorylation in BxPC-3 (IL-6 autocrine); assay type: cell-based, human
Experimental: (§3) Cells were harvested and lysed in cold radioimmunoprecipitation assay (RIPA) lysis buffer containing proteasome inhibitor cocktail and phosphatase inhibitor cocktail. The protein concentrations were determined using the BCA Protein Assay kit. After adding the loading buffer and boiling at 95° C. for 10 minutes, equivalent amounts of proteins were loaded on and separated by SDS-PAGE, and then were transferred to PVDF membranes. Membranes were probed with primary antibodies (1:1000) against phospho-STAT3 (Tyr705), STAT3, phospho-STAT1 (Tyr701), STAT1, phospho-STAT6 (Tyr 641), STAT6, and GAPDH, respectively, and horseradish peroxidase (HRP)-conjugated secondary antibody (1:10000) (Cell Signaling Technology, Beverly, Mass.). Membranes were analyzed using Enhanced Chemiluminescence Plus reagents and either scanned with the Storm Scanner (Amersham Pharmacia Biotech, Inc., Piscataway, N.J.) or imaged with ChemiDoc MP imaging system (Bio-Rad, Hercules, Calif.). For cytokine induction of STAT3 phosphorylation, MCF-7 breast cancer cells were seeded in 10 cm plates (1 million cells per plate) and allowed to adhere overnight followed by serum-starvation. […] The cells were harvested after 30 minutes and analyzed by Western blot.
BxPC-3 and SUM159 cells were seeded in 10 cm plates (1 million cells per plate) and allowed to adhere overnight. […] Then cells were harvested and analyzed by western blotting.

[5] = test system: IL-11 induced STAT3 phosphorylation; experiment: Western blot, IL-11 induced STAT3 phosphorylation in MCF7; assay type: cell-based, human; settings: MCF7, 15 μM, 2, 3 and 4 hours
Experimental: as §3, with “Calif.).” for “Calif.). For cytokine induction of STAT3 phosphorylation, MCF-7 breast cancer cells were seeded in 10 cm plates (1 million cells per plate) and allowed to adhere overnight followed by serum-starvation.”
(§4) MCF7 breast cancer cells were seeded in 10 cm plates (1 million cells per plate) and allowed to adhere overnight. […] The cells were harvested after 30 minutes and analyzed by western blotting.

[6] = test system: CNTF induced STAT3 phosphorylation; experiment: Western blot, CNTF induced STAT3 phosphorylation in MCF7; assay type: cell-based, human; settings: MCF7, 15 μM, 2, 3 and 4 hours
Experimental: as §3, with “Calif.).” for “Calif.). For cytokine induction of STAT3 phosphorylation, MCF-7 breast cancer cells were seeded in 10 cm plates (1 million cells per plate) and allowed to adhere overnight followed by serum-starvation.”
as §4

[7] = test system: SUM159 breast cancer cell line; experiment: MTT cell viability assay, SUM159; assay type: cell-based, human; settings: Homo sapiens, SUM159, 48 h, SUM159 (high IL-6), 0% FBS medium
STAT2 phosphorylation = experiment: Western blot, STAT2 phosphorylation in MCF7; assay type: cell-based, human; settings: MCF7, pre-treatment 2, 3 and 4 hours
Experimental: (§5) FIG. 13. depicts the reduced effect on STAT1, STAT2, STAT4 and STAT6 phosphorylation by LLM418. The MCF7 cells were serum-starved overnight, then treated with LLM4 (15 μM) for 2, 3 and 4 hours. STAT1, STAT2, STAT4 and STAT6 phosphorylation were induced by INF-γ, INF-α and IL-4, respectively. The cells were harvested at 30 minutes and analyzed by western blot assays.
as §3, with “Calif.).” for “Calif.). For cytokine induction of STAT3 phosphorylation, MCF-7 breast cancer cells were seeded in 10 cm plates (1 million cells per plate) and allowed to adhere overnight followed by serum-starvation.”

STAT4 phosphorylation = experiment: Western blot, STAT4 phosphorylation in MCF7; assay type: cell-based, human; settings: MCF7, pre-treatment 2, 3 and 4 hours
Experimental: as §5
as §3, with “Calif.).” for “Calif.). For cytokine induction of STAT3 phosphorylation, MCF-7 breast cancer cells were seeded in 10 cm plates (1 million cells per plate) and allowed to adhere overnight followed by serum-starvation.”

| IC50 [1] [nM] | IC50 [2] [nM] | IC50 [3] [nM] | IC50 [7] [nM] | Compound | inhibition of STAT3 phosphorylation ([4]; BxPC-3, 20 μM) | inhibition of STAT3 phosphorylation ([4]; BxPC-3, 5-20 μM, 16 h) | inhibition of IL-11 induced STAT3 phosphorylation [5] | CNTF induced STAT3 phosphorylation [6] | effect on STAT2 phosphorylation (STAT2 phosphorylation) | effect on STAT4 phosphorylation (STAT4 phosphorylation) |
| --- | --- | --- | --- | --- | --- | --- | --- | --- | --- | --- |
| 35100 | 4510 | 970 | 40 | O=C(Nc1cc(F)ccc1-n1cccc1)c1ccc(OCCCN2CCCCC2)cc1 [LLM4, N-(5-fluoro-2-(1H-pyrrol-1-yl)phenyl)-4-(3-(piperidin-1-yl)propoxy)benzamide] | almost complete inhibition | inhibited STAT3 phosphorylation in BxPC-3 cells in a dose dependent manner | also inhibited IL-11 induced STAT3 phosphorylation | remain intact | – | – |
| – | – | – | – | O=C(Nc1ccccc1-c1ccn[nH]1)c1ccc(OCCN2CCCCC2)cc1 [LLM418, N-(2-(1H-pyrazol-5-yl)phenyl)-4-(2-(piperidin-1-yl)ethoxy)benzamide] | – | – | – | – | little effect | little effect |
